Source: PubChem BioAssay AID1963963 (Molecular Pharmacology Branch, DTP, NCI, 2024)

Tested on: 958667-338-R-J2-PDC tumor spheroids viability
Experiment: Anticancer human tumor 958667-338-R-J2-PDC patient-derived colon adenocarcinoma cell line growth inhibition [PI3K]
Details: spheroids with HUVEC and MSC; for IC50: curve of first compound; for viability, T/C: stronger effect = lower value
Outline: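 Stroma-containing spheroids: tumor line, pooled-donor HUVEC, hMSC. Treatments: targeted agents with PI3K inhibitors. Dosing: clinically relevant, half-log spacing, 10 microM ceiling without known Cmax. Read-out: cell viability.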

[1] = second compound 0.0316 µM, first compound 0.0316 µM
[2] = second compound 0.0316 µM, first compound 0.1 µM
[3] = second compound 0.0316 µM, first compound 0.316 µM
[4] = second compound 0.0316 µM, first compound 1 µM
[5] = second compound 0.1 µM, first compound 0.0316 µM
[6] = second compound 0.1 µM, first compound 0.1 µM
[7] = second compound 0.1 µM, first compound 0.316 µM
[8] = second compound 0.1 µM, first compound 1 µM
[9] = second compound 0.316 µM, first compound 0.0316 µM
[10] = second compound 0.316 µM, first compound 0.1 µM
[11] = second compound 0.316 µM, first compound 0.316 µM
[12] = second compound 0.316 µM, first compound 1 µM
[13] = second compound 1 µM, first compound 0.0316 µM
[14] = second compound 1 µM, first compound 0.1 µM
[15] = second compound 1 µM, first compound 0.316 µM
[16] = second compound 1 µM, first compound 1 µM
[17] = second compound 3.16 µM, first compound 0.0316 µM
[18] = second compound 3.16 µM, first compound 0.1 µM
[19] = second compound 3.16 µM, first compound 0.316 µM
[20] = second compound 3.16 µM, first compound 1 µM
[21] = second compound 10 µM, first compound 0.0316 µM
[22] = second compound 10 µM, first compound 0.1 µM
[23] = second compound 10 µM, first compound 0.316 µM
[24] = second compound 10 µM, first compound 1 µM
[25] = second compound 0.0316 µM, first compound 3.16 µM
[26] = second compound 0.0316 µM, first compound 10 µM
[27] = second compound 0.1 µM, first compound 3.16 µM
[28] = second compound 0.1 µM, first compound 10 µM
[29] = second compound 0.316 µM, first compound 3.16 µM
[30] = second compound 0.316 µM, first compound 10 µM
[31] = second compound 1 µM, first compound 3.16 µM
[32] = second compound 1 µM, first compound 10 µM
[33] = second compound 3.16 µM, first compound 3.16 µM
[34] = second compound 3.16 µM, first compound 10 µM
[35] = second compound 10 µM, first compound 3.16 µM
[36] = second compound 10 µM, first compound 10 µM
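Further: spheroids exposed to compounds for seven days before readout.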

Structure (SMILES): CCN1CCN(Cc2ccc(Nc3ncc(F)c(-c4cc(F)c5nc(C)n(C(C)C)c5c4)n3)nc2)CC1 + CC(Nc1ncnc2nc[nH]c12)c1cc2cccc(Cl)c2c(=O)n1-c1ccccc1
- IC50 (second compound 0.0316 µM): > 1 µM
- IC50 (second compound 0.1 µM): > 1 µM
- IC50 (second compound 0.316 µM): > 1 µM
- IC50 (second compound 1 µM): > 1 µM
- IC50 (second compound 3.16 µM): > 1 µM
- IC50 (second compound 10 µM): > 1 µM
- viability, T/C (second compound 0.0316 µM, first compound 0.00316 µM): 91.2%
- viability, T/C (second compound 0.0316 µM, first compound 0.01 µM): 98.2%
- viability, T/C [1]: 98.8%
- viability, T/C [2]: 76.2%
- viability, T/C [3]: 66.1%
- viability, T/C [4]: 63.4%
- viability, T/C (second compound 0.1 µM, first compound 0.00316 µM): 87.2%
- viability, T/C (second compound 0.1 µM, first compound 0.01 µM): 88.9%
- viability, T/C [5]: 87.3%
- viability, T/C [6]: 83%
- viability, T/C [7]: 68.8%
- viability, T/C [8]: 65.2%
- viability, T/C (second compound 0.316 µM, first compound 0.00316 µM): 89.2%
- viability, T/C (second compound 0.316 µM, first compound 0.01 µM): 97%
- viability, T/C [9]: 82.2%
- viability, T/C [10]: 70.8%
- viability, T/C [11]: 71.4%
- viability, T/C [12]: 71.2%
- viability, T/C (second compound 1 µM, first compound 0.00316 µM): 102%
- viability, T/C (second compound 1 µM, first compound 0.01 µM): 71.1%
- viability, T/C [13]: 86.2%
- viability, T/C [14]: 66.1%
- viability, T/C [15]: 69%
- viability, T/C [16]: 66.2%
- viability, T/C (second compound 3.16 µM, first compound 0.00316 µM): 108%
- viability, T/C (second compound 3.16 µM, first compound 0.01 µM): 89.7%
- viability, T/C [17]: 84%
- viability, T/C [18]: 65.5%
- viability, T/C [19]: 64%
- viability, T/C [20]: 55.9%
- viability, T/C (second compound 10 µM, first compound 0.00316 µM): 90%
- viability, T/C (second compound 10 µM, first compound 0.01 µM): 82.8%
- viability, T/C [21]: 77.8%
- viability, T/C [22]: 57.8%
- viability, T/C [23]: 57.8%
- viability, T/C [24]: 53.9%

Structure (SMILES): Cn1ncc(Cl)c1-c1cc(C(=O)NC(CN)Cc2cccc(F)c2)sc1Cl (stereo unspecified) + CC(Nc1ncnc2nc[nH]c12)c1cc2cccc(Cl)c2c(=O)n1-c1ccccc1
- IC50 (second compound 0.0316 µM): > 10 µM
- IC50 (second compound 0.1 µM): 4.38 µM
- IC50 (second compound 0.316 µM): 1.37 µM
- IC50 (second compound 1 µM): 3.2 µM
- IC50 (second compound 3.16 µM): 3.6 µM
- IC50 (second compound 10 µM): 1.84 µM
- viability, T/C [1]: 87.7%
- viability, T/C [2]: 87.1%
- viability, T/C [3]: 100%
- viability, T/C [4]: 60.6%
- viability, T/C [25]: 60.5%
- viability, T/C [26]: 43.4%
- viability, T/C [5]: 111%
- viability, T/C [6]: 81.1%
- viability, T/C [7]: 84.7%
- viability, T/C [8]: 64.1%
- viability, T/C [27]: 59%
- viability, T/C [28]: 37.5%
- viability, T/C [9]: 93.7%
- viability, T/C [10]: 89.9%
- viability, T/C [11]: 82.1%
- viability, T/C [12]: 50.7%
- viability, T/C [29]: 52.2%
- viability, T/C [30]: 37.2%
- viability, T/C [13]: 95.6%
- viability, T/C [14]: 87.3%
- viability, T/C [15]: 97.1%
- viability, T/C [16]: 75.9%
- viability, T/C [31]: 51.4%
- viability, T/C [32]: 39.4%
- viability, T/C [17]: 88.4%
- viability, T/C [18]: 89.1%
- viability, T/C [19]: 85.8%
- viability, T/C [20]: 79.7%
- viability, T/C [33]: 52.1%
- viability, T/C [34]: 32.6%
- viability, T/C [21]: 82.3%
- viability, T/C [22]: 82.3%
- viability, T/C [23]: 65.9%
- viability, T/C [24]: 59.4%
- viability, T/C [35]: 42.9%
- viability, T/C [36]: 28.2%

Structure (SMILES): Cn1nccc1Nc1nccc(-c2ccn(C(CO)c3ccc(Cl)c(F)c3)c(=O)c2)n1 (stereo unspecified) + CC(Nc1ncnc2nc[nH]c12)c1cc2cccc(Cl)c2c(=O)n1-c1ccccc1
- IC50 (second compound 0.0316 µM): > 10 µM
- IC50 (second compound 0.1 µM): > 10 µM
- IC50 (second compound 0.316 µM): > 10 µM
- IC50 (second compound 1 µM): > 10 µM
- IC50 (second compound 3.16 µM): > 10 µM
- IC50 (second compound 10 µM): 8.08 µM
- viability, T/C [1]: 93.3%
- viability, T/C [2]: 93.3%
- viability, T/C [3]: 92.1%
- viability, T/C [4]: 97.6%
- viability, T/C [25]: 72.2%
- viability, T/C [26]: 77.8%
- viability, T/C [5]: 88%
- viability, T/C [6]: 106%
- viability, T/C [7]: 109%
- viability, T/C [8]: 69.4%
- viability, T/C [27]: 73.6%
- viability, T/C [28]: 63.3%
- viability, T/C [9]: 91.1%
- viability, T/C [10]: 105%
- viability, T/C [11]: 80.6%
- viability, T/C [12]: 106%
- viability, T/C [29]: 76.3%
- viability, T/C [30]: 60.1%
- viability, T/C [13]: 93.9%
- viability, T/C [14]: 87%
- viability, T/C [15]: 82.7%
- viability, T/C [16]: 89.6%
- viability, T/C [31]: 83.5%
- viability, T/C [32]: 50.7%
- viability, T/C [17]: 82.9%
- viability, T/C [18]: 79.9%
- viability, T/C [19]: 68.3%
- viability, T/C [20]: 75.4%
- viability, T/C [33]: 66.8%
- viability, T/C [34]: 51.4%
- viability, T/C [21]: 94%
- viability, T/C [22]: 94.2%
- viability, T/C [23]: 67.3%
- viability, T/C [24]: 87.6%
- viability, T/C [35]: 66.3%
- viability, T/C [36]: 44.9%
